These results are taken from patent publication US20100216718A1, “Cancer Classification and Methods of Use” (priority 2007, published 2010).

Each structure is given as a SMILES string.

Experiment [1] has as its system Akt (Ser473). Nature of the experiment: Western blot of Akt phosphorylation in H1703 cells. Conditions: for phosphorylation of Akt at Ser473: treated for 1 hr, western blot (FIG. 5B). The class given is cell-based, human. How it is done: (§1) We dissolved drugs (Iressa and Gleevec) in DMSO to yield 10 mM stock solution and stored at −20° C.
For orientation: A western blot detects proteins with antibodies after separation by electrophoresis.

Experiment [2] deals with T1, PDGFRα (Homo sapiens, UniProt P16234).
T1 construct: PDGFRα expression is highly restricted to H1703 cell line; endogenous in cells; host or cells: H1703 human NSCLC cell line (ATCC)
Briefly: Western blot of PDGFRα phosphorylation in H1703 cells. The class given is cell-based. How it is done:
as §1

Experiment [3] deals with p44/42MAPK. Briefly: Western blot of p44/42MAPK phosphorylation in H1703 cells. Conditions: 100 nM Imatinib, 1 hour (FIG. 9B). The class given is cell-based, human. How it is done: as §1
In experiment [4] the test system is H1703 cells. Nature of the experiment: Cell growth inhibition assay (MTT/MTS), H1703. The settings on record: 72 hr (FIG. 5C). It is filed as cell-based, human.
Protocol: Briefly, we seeded 1000 to 5000 cells onto flat-bottomed 96-well plates and grew them in complete medium with 10% FBS. After 24 hours, we changed the cell medium to 100 μl complete growth medium with 10% FBS containing various concentrations of Gleevec, and incubated the cells for an additional 72 hours. We applied each drug concentration to triplicate well of cells. At the end of the incubation, we added 20 μl of CellTiter 96 AQUESOUS One solution to each well, and incubated the plate for 1-4 hours. We read absorbance at 490 nm using a Titan Multiskan Ascent microplate reader (Titertek Instrument). We expressed growth inhibition as mean±SD value of percentage of absorbance reading from treated cells vs untreated cells. We repeated the assay at least three times. We calculated IC50 with the use of OriginPro 6.1 software (OriginLab, Northampton, Mass.).
For experiment [5], the system named is H1703 xenograft. Nature of the experiment: H1703 mouse xenograft. The class given is in vivo, NCR nude mice. The method, then: We purchased four to six weeks female NCR nude mice from Taconic ande used them to generate H1703 xenograft. We carried out experiments under an IACUC approved protocol. We followed institutional guidelines for the proper and humane use of animals in research. We generated tumors by injecting 10 mice with 5×10^6H1703 cells and reconstituted basement membrane Matrigel (BD Biosciences) with 1:1 ratio in PBS. Drug treatment started when the tumor was about 1 mm×1 mm size. 5 mice were treated with Gleevec at 50 mg/kg/day by oral gavage using a ball ended feeding needle. 5 mice were untreated. […] We measured the average tumor diameter using caliper in both control and treated groups of mice.

In experiment [6] the test system is phosphotyrosine signaling in H1703 cells. Briefly: SILAC LC-MS/MS phosphotyrosine analysis of H1703 cells. The class given is cell-based, human. The settings on record: 1 μM Gleevec for 3 hours. The source says:
We performed phosphopeptide immunoprecipitation from different cell lines as described previously (Rush, J., Moritz, A., Lee, K. A., Guo, A., Goss, V. L., Spek, E. J., Zhang, H., Zha, X. M., Polakiewicz, R. D., and Comb, M. J. (2005). Immunoaffinity profiling of tyrosine phosphorylation in cancer cells. Nat. Biotechnol. 23, 94-101) using the PhosphoScan Kit (P-Tyr-100) from CST.
We split equal number of H1703 cells and grew them in either light or heavy SILAC medium (RPMI medium lacking arginine and lysine supplemented with either regular L-Lysine:HCl and L-Arginine:HCL (Sigma) for light medium, or supplemented with L-arginine:HCl (U-13 C6,98%) and L-lysine:2HCl (U-13C6,98%; U-15N2,98%) (Cambridge Isotope Laboratories) for heavy medium. The medium also contained 10% FBS, and penicillin/streptomycin. We grew cells for at least five generations to reach 100 million cells in each medium type. We then treated cells grown in the heavy medium with 1 μM Gleevec for 3 hours. We lysed both treated and control cells in Urea lysis buffer and combined them for phosphopeptide immunoprecipitation experiment as described above.
We LC-MS analyzed each phosphopeptide sample in duplicate. We packed a fused silica microcapillary column (125 μm×18 cm) with C18 reverse-phase resin (Magic C18AQ, 5 μm particles, 200 Å pore size, Michrom Bioresources, Auburn, Calif.). We loaded samples (4 μL) onto this column with an autosampler (LC Packings Famos, San Francisco, Calif.) and eluted them into the mass spectrometer by a 55-min linear gradient of 7 to 30% acetonitrile in 0.1% formic acid. We delivered the gradient at approximately 600 nl/min using a binary HPLC pump (Agilent 1100, Palo Alto, Calif.) with an in-line flow splitter. We mass analyzed eluting peptide ions with a hybrid linear ion trap-7 Tesla ion cyclotron resonance Fourier transform instrument (LTQ-FT, Thermo Electron, San Jose, Calif.). We employed a top-seven method, whereby we collected 7 data-dependent MS/MS scans in the linear ion trap based on measurements made during the previous MS survey scan in the ICR cell, with the linear ion trap and the Fourier transform instrument operating concurrently. We performed MS scans at 375-1800 m/z with an automatic gain control (AGC) target of 3×10^6 and a mass resolution of 10^5. For MS/MS the AGC was 4000, the dynamic exclusion time was 25 s, and singly-charged ions were rejected by charge-state screening.
We assigned peptide sequences to MS/MS spectra using Sequest software (v.27, rev.12) and a composite forward/reverse IPI human protein database. Search parameters were: trypsin as protease; 1.08 Da precursor mass tolerance; static modification on cysteine (+57.02146, carboxamidomethylation); and dynamic modifications on serine, threonine and tyrosine (+79.96633 Da, phosphorylation), lysine (+8.01420, ^13C6 ^15N2), arginine (+6.02013, ^13C6) and methionine (+15.99491, oxidation). We used a target/decoy database approach to establish appropriate score-filtering criteria such that the estimated false-positive assignment rate was <1%. In addition to exceeding charge-dependent XCorr thresholds (for z=2, XCorr≧2.2; for z=3, XCorr≧3.3; for z=4, XCorr≧3.5), we required assignments to contain phosphotyrosine, to have a mass accuracy of −5 to +25 ppm, and to contain either all-light or all-heavy lysine/arginine residues. We further evaluated assignments passing these criteria using a custom quantification program Vista (Bakalarski, C. E., Elias, J. E., Villen, J. Haas, W., Gerber, S. A., Everley, P. A., and Gygi, S. P. (2008) The Impact of Peptide Abundance and Dynamic Range on Stable-Isotope-Based Quantitative Proteomic Analyses. J. Proteome Res. 10.1021/pr800333e) to calculate peak areas and ultimately a relative abundance between heavy and light forms of each peptide.

The test system of experiment [7] is PLCγ1. Nature of the experiment: Western analysis with site and phosphorylation-specific antibodies, PLCγ1. The class given is cell-based, human. Conditions: H1703 cells, 1 μM for 3 hours, western (FIG. 9E). The method, then: as §1
Experiment [8] has as its system SHP2. Briefly: Western analysis with site and phosphorylation-specific antibodies, SHP2. It is filed as cell-based, human. The settings on record: H1703 cells, 1 μM for 3 hours, western (FIG. 9E). How it is done: as §1
For experiment [9], the system named is Stat3. Briefly: Western analysis with site and phosphorylation-specific antibodies, Stat3. The class given is cell-based, human. Conditions: H1703 cells, 1 μM for 3 hours, western (FIG. 9E). The method, then:
as §1

Experiment [10] deals with A549 cells. Conditions: previous report (Zhang et al. 2003); cited from earlier work.
[11] abbreviates: 100 nM Imatinib, 1 hour (FIG. 9B).
The mark [12] stands for this setting: indicated amounts of Imatinib mesylate, 1 hour (FIG. 9B).

T1 sequence (P16234 24-1089): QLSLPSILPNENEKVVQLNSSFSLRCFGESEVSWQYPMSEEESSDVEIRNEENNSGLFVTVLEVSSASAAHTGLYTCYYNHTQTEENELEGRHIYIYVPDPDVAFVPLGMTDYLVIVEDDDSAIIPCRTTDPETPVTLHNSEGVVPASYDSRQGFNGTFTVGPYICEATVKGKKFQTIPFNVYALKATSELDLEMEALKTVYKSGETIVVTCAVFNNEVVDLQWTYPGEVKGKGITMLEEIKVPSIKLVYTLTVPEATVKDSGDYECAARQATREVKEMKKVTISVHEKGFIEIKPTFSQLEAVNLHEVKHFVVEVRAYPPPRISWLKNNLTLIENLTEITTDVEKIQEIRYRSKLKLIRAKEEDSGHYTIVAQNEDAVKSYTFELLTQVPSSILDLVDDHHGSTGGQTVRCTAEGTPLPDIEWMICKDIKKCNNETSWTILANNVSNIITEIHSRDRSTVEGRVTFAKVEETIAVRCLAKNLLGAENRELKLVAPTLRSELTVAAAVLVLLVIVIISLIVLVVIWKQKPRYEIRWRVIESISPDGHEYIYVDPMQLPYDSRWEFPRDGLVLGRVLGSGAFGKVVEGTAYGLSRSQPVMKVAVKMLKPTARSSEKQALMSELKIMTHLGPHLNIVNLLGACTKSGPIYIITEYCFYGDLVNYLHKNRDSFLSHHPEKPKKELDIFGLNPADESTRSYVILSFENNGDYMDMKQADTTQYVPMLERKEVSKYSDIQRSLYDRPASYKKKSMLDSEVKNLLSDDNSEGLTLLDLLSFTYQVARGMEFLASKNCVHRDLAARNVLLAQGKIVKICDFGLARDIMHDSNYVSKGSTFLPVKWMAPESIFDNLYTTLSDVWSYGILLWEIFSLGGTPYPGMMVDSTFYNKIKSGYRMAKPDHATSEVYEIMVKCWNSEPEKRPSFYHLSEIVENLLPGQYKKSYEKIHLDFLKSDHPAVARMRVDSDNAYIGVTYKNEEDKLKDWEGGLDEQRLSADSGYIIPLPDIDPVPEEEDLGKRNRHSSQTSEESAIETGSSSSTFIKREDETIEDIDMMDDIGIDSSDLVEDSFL

As for `COc1cc2ncnc(Nc3ccc(F)c(Cl)c3)c2cc1OCCCN1CCOCC1` [Gefitinib], the “phosphorylation of Akt at Ser473” value in experiment [1] is “not by Gefitinib”.
For the molecule `Cc1ccc(NC(=O)c2ccc(CN3CCN(C)CC3)cc2)cc1Nc1nccc(-c2cccnc2)n1` [Imatinib], the Akt phosphorylation entry in [1] (setting [11]) was “almost complete inhibition”. Further, the “Akt phosphorylation (Ser473)” value in experiment [1] (setting [12]) is “dose-dependent inhibition”. In [1], the “phosphorylation of Akt at Ser473” value was “blocked”. The PDGFRα phosphorylation result in experiment [2] (setting [11]) was “almost complete inhibition”. In addition, the “phosphorylation of PDGFRα” value in experiment [2] (1 μM for 3 hours, western (FIG. 9E)) was “decreased phosphorylation”. Besides, in [2] (setting [12]), the “PDGFR α phosphorylation (Tyr754)” value is “dose-dependent inhibition”. The p44/42MAPK phosphorylation result in [3] is “little if any effect”. Moreover, the “cell growth / sensitivity to Imatinib” value in experiment [4] was “sensitivity profile similar to K562 cells”. The “cell growth / sensitivity to Imatinib” value in [4] (listed as Imatinib mesylate) is “inhibits cell growth”. Besides, in experiment [5] (H1703 xenograft in nude mice, 50 mg/kg daily, 2 week period, vs vehicle), the tumor growth result was “immediate and profound effects on tumor growth”. In addition, the tumor growth entry in experiment [5] (H1703 xenograft, after 7 days of Imatinib treatment at 50 mg/kg (FIG. 9F)) was “blocks tumor growth”. For the same molecule, in experiment [6], the “phosphorylation of SMS2” value was “inhibited phosphorylation”, the “phosphorylation of the ras effector Rinl” value is “inhibited phosphorylation”, the “tyrosine phosphorylation of SHP-2” value is on record as “suppressed tyrosine phosphorylation” and the “tyrosine phosphorylation of Stat5” value was “suppressed tyrosine phosphorylation”. Further, in [6], the “tyrosine phosphorylation of phospholipase Cg 1” value is “suppressed tyrosine phosphorylation”; the “tyrosine phosphorylation of proteins regulating the cytoskeleton and actin reorganization and signaling molecules involved in membrane recycling and endocytosis” value is recorded as “suppressed”; the “tyrosine phosphorylation of the regulatory subunit of PI3K” value was “suppressed tyrosine phosphorylation”. The “phosphorylation of PLCγ1” value in experiment [7] is “decreased phosphorylation”. Moreover, in experiment [8], the “phosphorylation of SHP2” value is on record as “decreased phosphorylation”. Moreover, the “phosphorylation of Stat3” value in [9] is reported as “not changed”. Further, the “sensitivity to Imatinib” value in experiment [10] is recorded as “showed sensitivity”.
